Among the data in PubChem BioAssay (NCI) are TGI and GI50 values, retold here.

“And” between values parts separate entries of the source, which are not always exact repeats. Identical values can stand only once.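 Five compound concentrations were applied to cells in 96-well plates for 48 hours; endpoints were derived by simple linear interpolation of the resulting dose-response curve. Abbreviation: GI50, concentration required for 50% inhibition of growth. TGI: concentration producing complete growth inhibition.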

Some test systems named below: M14 melanoma; NCI/ADR-RES ovarian; TK-10 renal; SF-268 CNS; HCC-2998 colon; SF-295 CNS; HT29 colon; SK-MEL-2 melanoma; OVCAR-8 ovarian; EKVX NSCLC.
Holding throughout (assay): NCI-60 cell line screen, 48 h

For the compound `CC1Oc2cc3c(-c4c(O)cc(O)c5c(O)c6c(cc45)OC(C)C(C)C6=O)c(O)cc(O)c3c(O)c2C(=O)C1C` (stereo unspecified), the TGI in the assay with M14 melanoma was 1.12 µM; with NCI/ADR-RES ovarian it was 1.39 µM; with TK-10 renal, 5.45 µM; in the assay with SF-268 CNS, 2.46 µM; with HCC-2998 colon, 1.63 µM; with SF-295 CNS, 0.49 µM. Moreover, the TGI in the assay on HT29 colon worked out at 0.397 µM; with SK-MEL-2 melanoma, 0.331 µM; in the assay on OVCAR-8 ovarian, 1.4 µM; in the assay on EKVX NSCLC, 0.711 µM.
Turning to `CCN(CC)CCOc1ccc(C(=C(C)c2ccc(Cl)cc2)c2ccc(OCCN(CC)CC)cc2)cc1`, the GI50 was 0.633 µM with M14 melanoma; 0.657 µM in the assay on NCI/ADR-RES ovarian; 0.698 µM in the assay on TK-10 renal; 0.659 µM in the assay on SF-268 CNS; 0.574 µM with HCC-2998 colon; 0.614 µM with SF-295 CNS. The GI50 is 0.578 µM in the assay on HT29 colon, 0.661 µM with SK-MEL-2 melanoma, 0.731 µM in the assay on OVCAR-8 ovarian and 0.989 µM in the assay with EKVX NSCLC. In addition, the TGI is 1.14 µM in the assay with M14 melanoma; 1.4 µM in the assay on NCI/ADR-RES ovarian; 1.67 µM in the assay with TK-10 renal; 1.49 µM in the assay on SF-268 CNS; 1.06 µM with HCC-2998 colon; 1.19 µM in the assay with SF-295 CNS. Also, the TGI with HT29 colon was 1.27 µM; in the assay with SK-MEL-2 melanoma, 1.32 µM; with OVCAR-8 ovarian, 1.77 µM; with EKVX NSCLC, 3.5 µM.
`CCc1ccc(NC(=O)Nc2c[nH]c3ccccc23)cc1`: the GI50 with M14 melanoma was greater than 39.8 µM; in the assay with NCI/ADR-RES ovarian, 14.2 µM; in the assay on TK-10 renal it was greater than 46.1 µM; with SF-268 CNS, 4.24 µM; with HCC-2998 colon, 18 µM; in the assay with SF-295 CNS, 23.8 µM. Besides, the GI50 with HT29 colon is greater than 43.5 µM; in the assay with SK-MEL-2 melanoma, 35.5 µM; in the assay on OVCAR-8 ovarian it was 13.9 µM; in the assay with EKVX NSCLC, 9.2 µM. Further, the TGI is greater than 57 µM with M14 melanoma; greater than 62.8 µM with NCI/ADR-RES ovarian; greater than 70.9 µM in the assay with TK-10 renal; greater than 43.4 µM in the assay on SF-268 CNS; greater than 50.8 µM in the assay with HCC-2998 colon; greater than 56 µM in the assay with SF-295 CNS. For the same compound, the TGI in the assay on HT29 colon was greater than 61.2 µM; in the assay on SK-MEL-2 melanoma, greater than 52.1 µM; in the assay on OVCAR-8 ovarian, greater than 47.5 µM; with EKVX NSCLC, greater than 55 µM.
For `COc1cc(Cn2cc3c(c2)-c2oncc2CC3)cc(OC)c1OC`, the GI50 with M14 melanoma is 0.0274 µM; with NCI/ADR-RES ovarian, 0.0268 µM; with TK-10 renal, 5.77 µM; in the assay with SF-268 CNS, 0.0778 µM; in the assay on HCC-2998 colon, 0.0413 µM; in the assay on SF-295 CNS it was 0.0185 µM. Further, the GI50 with HT29 colon was 0.0339 µM; in the assay on SK-MEL-2 melanoma it was 7.2 µM; in the assay on OVCAR-8 ovarian, 0.0548 µM; with EKVX NSCLC, 0.0467 µM. In addition, the TGI with M14 melanoma is 38.9 µM; with TK-10 renal, greater than 100 µM; with SF-268 CNS, greater than 55.4 µM; in the assay on HCC-2998 colon, 17 µM; with SF-295 CNS, 0.059 µM; with HT29 colon it was greater than 100 µM. For the same compound, the TGI in the assay with SK-MEL-2 melanoma is 79.3 µM; in the assay with OVCAR-8 ovarian, greater than 100 µM; with EKVX NSCLC, greater than 65.7 µM.
For the compound `C=C(C)[C@@H]1CC=C(CO)CC1`, the GI50 in the assay with M14 melanoma, in the assay with TK-10 renal, in the assay on SF-268 CNS, with HCC-2998 colon, in the assay with SF-295 CNS and in the assay with HT29 colon was greater than 10 µM in each case. The GI50 in the assay with SK-MEL-2 melanoma, with OVCAR-8 ovarian and with EKVX NSCLC was greater than 10 µM in each case. Also, the TGI in the assay with M14 melanoma is > 10 µM and 1410 µM; with NCI/ADR-RES ovarian it was greater than 10 µM; with TK-10 renal it was > 10 µM and 998 µM; with SF-268 CNS, > 10 µM and 709 µM; in the assay with HCC-2998 colon, > 10 µM and 1460 µM; in the assay with SF-295 CNS, > 10 µM and 941 µM. For the same compound, the TGI was > 10 µM and 702 µM in the assay with HT29 colon; > 10 µM and 817 µM in the assay on SK-MEL-2 melanoma; > 10 µM and 857 µM with OVCAR-8 ovarian; > 10 µM and 1250 µM with EKVX NSCLC.
For `N=C(N)c1nn(C2OC(CO)C(O)C2O)c2nc[nH]c(=O)c12` (stereo unspecified), the GI50 is 0.454 µM with M14 melanoma; 0.321 µM with NCI/ADR-RES ovarian; 0.363 µM in the assay on TK-10 renal; 0.445 µM in the assay with SF-268 CNS; 0.849 µM in the assay with HCC-2998 colon; 0.643 µM with SF-295 CNS. The GI50 is 2.11 µM with HT29 colon, 0.19 µM with SK-MEL-2 melanoma, 0.435 µM in the assay with OVCAR-8 ovarian and 0.493 µM in the assay on EKVX NSCLC. The TGI was 1.75 µM in the assay on M14 melanoma; 1.72 µM with NCI/ADR-RES ovarian; 2.17 µM in the assay with TK-10 renal; 3.04 µM with SF-268 CNS; 3.37 µM in the assay with HCC-2998 colon; 3.26 µM in the assay on SF-295 CNS. Further, the TGI in the assay on HT29 colon worked out at 11.7 µM; with SK-MEL-2 melanoma it was 0.663 µM; with OVCAR-8 ovarian it was 7.22 µM; with EKVX NSCLC, 3.95 µM.
With `c1ccc2[nH]c(-c3ccc(N4CCN(c5ccc(-c6nc7ccccc7[nH]6)cc5)CC4)cc3)nc2c1`, the GI50 is 12.4 µM in the assay on M14 melanoma; greater than 100 µM in the assay on NCI/ADR-RES ovarian; 37.9 µM in the assay with TK-10 renal; greater than 100 µM with SF-268 CNS; greater than 100 µM in the assay with HCC-2998 colon; greater than 100 µM in the assay on SF-295 CNS. For the same compound, the GI50 is greater than 100 µM in the assay with HT29 colon, greater than 100 µM in the assay on OVCAR-8 ovarian and 25.7 µM in the assay on EKVX NSCLC. For the same compound, the TGI with M14 melanoma, in the assay with NCI/ADR-RES ovarian, in the assay on TK-10 renal, in the assay on SF-268 CNS, with HCC-2998 colon and with SF-295 CNS was greater than 100 µM throughout. In addition, the TGI in the assay with HT29 colon, with OVCAR-8 ovarian and in the assay with EKVX NSCLC was greater than 100 µM each time.
`O=C(CCl)c1ccc([N+](=O)[O-])o1`: the GI50 is 2.18 µM with M14 melanoma; 3.51 µM in the assay on NCI/ADR-RES ovarian; 1.79 µM in the assay on TK-10 renal; 2.54 µM with SF-268 CNS; 5.36 µM in the assay with HCC-2998 colon; 5.26 µM in the assay with SF-295 CNS. Besides, the GI50 is 2.76 µM in the assay with HT29 colon, 6.81 µM in the assay with SK-MEL-2 melanoma, 3.33 µM with OVCAR-8 ovarian and 10.7 µM in the assay with EKVX NSCLC. The TGI with M14 melanoma was 5.06 µM; in the assay on NCI/ADR-RES ovarian, 23.8 µM; in the assay with TK-10 renal, 3.49 µM; in the assay with SF-268 CNS, 6.8 µM; in the assay with HCC-2998 colon, 11.2 µM; with SF-295 CNS, 17.4 µM. Further, the TGI in the assay on HT29 colon worked out at 8.99 µM; in the assay on SK-MEL-2 melanoma it was 27.4 µM; with OVCAR-8 ovarian it was 18.8 µM; with EKVX NSCLC, 32.6 µM.
